How the values were obtained:
[1] = tested on: neuropathic pain model in the sheep; experiment: Neuropathic pain model in sheep, behavior monitoring (Observer 3.0) with visual analog pain score; format: in vivo; details: sheep #980 Dudley
Excerpt: The neuropathic pain model in the sheep is created by placing four tight ligatures around the median, radial, or ulnar nerve (or a combination thereof) with 0-chromic gut suture. This method produces a chronic painful peripheral mononeuropathy which may be related to those conditions seen in humans with causalgia and reflex sympathetic dystrophy.
To evaluate animal behavior, the Observer 3.0 software (Noldus Information Technology, The Netherlands) was used to aid docmentation of a daily record of multiple traits. […] The behavior was then interpreted into a visual analog pain score (VAS), where 0 represents no pain and 100 represents severe pain.
Approximately three days prior to surgery each sheep will undergo a 15-minute baseline behavior evaluation. The observations made in this evaluation include, a computerized behavior software recording (the Observer) for 15minutes—gait monitoring—and recording of pain perception via visual analog scale-using the Observer. In some animals, recording of vital signs (blood pressure, heart rate, respirations per minute) will be performed using the Observer. Baseline values for pain perception are recorded via the mechanical stimulus device and/or behavior monitoring will also be performed at this time.
The sheep will be observed daily postoperatively. […] Observations of neuropathic pain development include changes in ambulation, alertness, appetite, urination, defecation, herding activity, body temperature and pain behaviors. This daily behavior is recorded utilizing the observer (an observational software system).

[2] = Physiological data: indirect blood pressure, pulse, rectal temperature, weight; format: in vivo, sheep; details: sheep #980 Dudley
Excerpt: Daily rectal temperatures were taken and any behavioral/motor changes were noted. Gait monitoring will be conducted as described below based on a four-grade scale for the evaluation of behavioral and motor changes. Grade 0: animal standing, sheep is able to rise and ambulate without any difficulty. Grade 1: Shuffling of either rear leg or slight limp; slight distortion of normal spinal axis. Grade 2: Loss of righting reflex in one of the rear legs, sheep able to stand without assistance, but with some difficulty. Grade 3: Inability to maintain standing posture; attempts to help animal stand are unsuccessful.
Indirect blood pressure, pulse recording, pain testing (mechanical stimulus device, cold and warm water baths see description in procedure) and weight were taken on days 1, 3, 7, 15, 22, 29, 36, and 43. Venous blood samples (15 ml drawn from the jugular vein with Vacutainer brand blood collection tubes) for complete blood count, electrolytes, and extended blood chemistry were drawn on days 1, 15, and 43 (mild procedure only light hand restraint necessary).

[3] = cited from earlier work
[4] = MDZ 3 mg per day, daily values, first and second course
[5] = MS 6.5 mg per day, daily values

Cc1ncc2n1-c1ccc(Cl)cc1C(c1ccccc1F)=NC2 [MDZ]
Other behavior: Defaecation ([1]; MDZ 2 mg per day): 0.65%
Other behavior: Eating lying ([1]; MDZ 2 mg per day): 1.69%
Other behavior: Ruminating laying down ([1]; MDZ 2 mg per day): 98.28%,
Other behavior: Ruminating standing ([1]; MDZ 2 mg per day): 0.48%
Grind teeth ([1]; MDZ 2 mg per day, daily values): 0%
Other behavior ([1]; MDZ 2 mg per day, daily values): 0
Other behavior: Defaecation ([1]; MDZ 3 mg per day): 0.49%
Other behavior: Drinking ([1]; MDZ 3 mg per day): 0.6%
Other behavior: Eating lying ([1]; MDZ 3 mg per day): 1.14%
Grind teeth [1, 4]: 0%
Holding unoperated leg off the ground [1, 4]: 0%
Other behavior [1, 4]: 0
Eating ([1]; MDZ 4 mg per day): 36.49%
Grind teeth ([1]; MDZ 4 mg per day): 0%
Holding operated leg off the ground ([1]; MDZ 4 mg per day): 2.78%
Holding unoperated leg off the ground ([1]; MDZ 4 mg per day): 0.36%
Laying down ([1]; MDZ 4 mg per day): 0%
Not bearing weight on operated leg ([1]; MDZ 4 mg per day): 29.65%
Observe Operated leg ([1]; MDZ 4 mg per day): 1.51%
Other behavior: Bleating ([1]; MDZ 4 mg per day): 0.76%
Pain Score ([1]; MDZ 4 mg per day): 50%
Standing ([1]; MDZ 4 mg per day): 0.52%
Walking ([1]; MDZ 4 mg per day): 1.09%
Grind teeth ([1]; MDZ 5 mg per day, daily values): 0%
Holding unoperated leg off the ground ([1]; MDZ 5 mg per day, daily values): 0%
Laying down ([1]; MDZ 5 mg per day, daily values): 0%
Observe Operated leg ([1]; MDZ 5 mg per day, daily values): 0%
Pain Score ([1]; MDZ 5 mg per day, daily values): 85%
Standing ([1]; MDZ 5 mg per day, daily values): 0%
Other behavior: Defaecation ([1]; MDZ 6 mg per day): 0.94%
Other behavior: Eating lying ([1]; MDZ 6 mg per day): 0.21%
Other behavior: Pulling wool ([1]; MDZ 6 mg per day): 0.26%,
Grind teeth ([1]; MDZ 6 mg per day, daily values): 0%
Holding unoperated leg off the ground ([1]; MDZ 6 mg per day, daily values): 0%
Laying down ([1]; MDZ 6 mg per day, daily values): 0%
Other behavior ([1]; MDZ 6 mg per day, daily values): 0
Standing ([1]; MDZ 6 mg per day, daily values): 0%
Resp per min. ([2]; MDZ 4 mg per day): 58 per min.

CN1CC[C@]23c4c5ccc(O)c4O[C@H]2[C@@H](O)C=C[C@H]3[C@H]1C5.CN1CC[C@]23c4c5ccc(O)c4O[C@H]2[C@@H](O)C=C[C@H]3[C@H]1C5.O=S(=O)(O)O [MS]
Other behavior: Drink ([1]; MS 1 mg per day): 0.5%
Laying down ([1]; MS 1 mg per day, daily values): 0%
Other behavior ([1]; MS 1 mg per day, daily values): 0
Eating ([1]; MS 2 mg per day): 0%
Grind teeth ([1]; MS 2 mg per day): 1.39%
Holding operated leg off the ground ([1]; MS 2 mg per day): 15.88%
Holding unoperated leg off the ground ([1]; MS 2 mg per day): 0%
Laying down ([1]; MS 2 mg per day): 0%
Not bearing weight on operated leg ([1]; MS 2 mg per day): 64.74%
Observe Operated leg ([1]; MS 2 mg per day): 0.19%
Other behavior ([1]; MS 2 mg per day): 0
Pain Score ([1]; MS 2 mg per day): 90%
Standing ([1]; MS 2 mg per day): 17.34%
Walking ([1]; MS 2 mg per day): 0.47%
Other behavior: Ruminating standing ([1]; MS 3 mg per day): 2.69%
Holding unoperated leg off the ground ([1]; MS 3 mg per day, daily values): 0%
Laying down ([1]; MS 3 mg per day, daily values): 0%
Other behavior ([1]; MS 3 mg per day, daily values): 0
Pain Score ([1]; MS 3 mg per day, daily values): 85%
Standing ([1]; MS 3 mg per day, daily values): 0%
Eating ([1]; MS 4 mg per day): 4.72%
Grind teeth ([1]; MS 4 mg per day): 0%
Holding operated leg off the ground ([1]; MS 4 mg per day): 5.2%
Holding unoperated leg off the ground ([1]; MS 4 mg per day): 0%
Laying down ([1]; MS 4 mg per day): 0%
Not bearing weight on operated leg ([1]; MS 4 mg per day): 69.53%
Observe Operated leg ([1]; MS 4 mg per day): 0%
Other behavior: Ruminating standing ([1]; MS 4 mg per day): 15.2%
Pain Score ([1]; MS 4 mg per day): 83%
Standing ([1]; MS 4 mg per day): 0%
Walking ([1]; MS 4 mg per day): 5.36%
Other behavior: Bleating ([1]; MS 5 mg per day): 0.98%
Other behavior: Eating lying ([1]; MS 5 mg per day): 0.7%,
Other behavior: Pulling wool ([1]; MS 5 mg per day): 0.28%,
Other behavior: pawing ground ([1]; MS 5 mg per day): 0.85%
Grind teeth ([1]; MS 5 mg per day, daily values): 0%
Standing ([1]; MS 5 mg per day, daily values): 0%
Eating ([1]; MS 6 mg per day): 0%
Grind teeth ([1]; MS 6 mg per day): 0%
Holding operated leg off the ground ([1]; MS 6 mg per day): 9.77%
Holding unoperated leg off the ground ([1]; MS 6 mg per day): 0.52%
Laying down ([1]; MS 6 mg per day): 43.57%
Not bearing weight on operated leg ([1]; MS 6 mg per day): 35.43%
Observe Operated leg ([1]; MS 6 mg per day): 0.66%
Other behavior ([1]; MS 6 mg per day): 0
Pain Score ([1]; MS 6 mg per day): 80%
Standing ([1]; MS 6 mg per day): 0.99%
Walking ([1]; MS 6 mg per day): 9.07%
Other behavior: Eating lying ([1]; MS 6.5 mg per day): 9.31%
Holding unoperated leg off the ground [1, 5]: 0%
Other behavior [1, 5]: 0
Resp per min. ([2]; MS 2 mg per day): 22 per min.
Resp per min. ([2]; MS 4 mg per day): 64 per min.
Resp per min. ([2]; MS 6 mg per day): 64 per min.

COc1ccc2c3c1O[C@H]1C(=O)CC[C@@]4(O)[C@@H](C2)N(C)CC[C@]314 [Oxycodone]
approximate equipotent dose, IT ([3]; route IT): 10
approximate equipotent dose, IV ([3]; route IV): 200
approximate equipotent dose, PO ([3]; route PO): 600

From patent US20040006070A1, “Intraspinal continuous infusion of midazolam hydrochloride for the treatment of pain” (priority 2002, published 2004)
